Measurements as given in patent publication US8829030B2 (priority 2002, dated 2014).
Where two headings read alike, the source gives them in different places.

Target: recombinant HCV RNA-dependent RNA polymerase (NS5B protein) (Hepatitis C virus genotype 1b, UniProt P26663)
Assay: biochemical
Design: species or system HCV-Bk strain
[1] = read-out: Activity (polymerase activity, IC50)

Chain of recombinant HCV RNA-dependent RNA polymerase (NS5B protein) (P26663 2420-3010 limits assumed): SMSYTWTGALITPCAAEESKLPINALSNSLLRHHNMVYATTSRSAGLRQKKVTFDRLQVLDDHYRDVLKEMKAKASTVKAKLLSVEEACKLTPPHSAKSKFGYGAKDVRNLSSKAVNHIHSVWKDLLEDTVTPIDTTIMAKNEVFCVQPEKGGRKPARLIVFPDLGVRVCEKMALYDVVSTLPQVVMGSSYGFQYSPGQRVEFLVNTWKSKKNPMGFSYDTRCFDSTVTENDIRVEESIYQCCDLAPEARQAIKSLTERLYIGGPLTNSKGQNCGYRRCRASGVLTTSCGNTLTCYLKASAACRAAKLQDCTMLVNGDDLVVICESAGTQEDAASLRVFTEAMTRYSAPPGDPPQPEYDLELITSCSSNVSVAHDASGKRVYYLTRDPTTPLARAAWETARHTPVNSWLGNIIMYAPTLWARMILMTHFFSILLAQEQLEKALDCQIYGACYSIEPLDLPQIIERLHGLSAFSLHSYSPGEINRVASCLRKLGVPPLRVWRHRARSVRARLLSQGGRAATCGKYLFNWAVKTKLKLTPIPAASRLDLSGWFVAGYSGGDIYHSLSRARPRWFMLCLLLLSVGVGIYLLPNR

Compound | IC50 [1] | IC50
CC1CCC(C(=O)N(c2cc(-c3cccc(F)c3)sc2C(=O)O)C(C)C)CC1 (stereo not shown) [Compound 5, 5-(3-fluoro-phenyl)-3-[isopropyl-(4-methyl-cyclohexanecarbonyl)-amino]-thiophene-2-carboxylic acid] | < 5 µM | 
CC1CCC(C(=O)N(c2cc(-c3ccccc3)sc2C(=O)O)N(C)C)CC1 (stereo not shown) [Compound 64, 3-[N′,N′-dimethyl-n-(4-methyl-cyclohexanecarbonyl)-hydrazino]-5-phenyl-thiophene-2-carboxylic acid] |  | < 5 µM
CC(=O)c1ccc(-c2cc(N(C(=O)[C@H]3CC[C@H](C)CC3)[C@H]3CC[C@H](O)CC3)c(C(=O)O)s2)cc1 [Compound 85, 5-(4-acetyl-phenyl)-3-[(4-hydroxy-cyclohexyl)-(4-methyl-cyclohexanecarbonyl)-amino]-thiophene-2-carboxylic acid] |  | < 5 µM
CC1CCC(C(=O)N(c2cc(-c3ccccc3)sc2C(=O)O)C2CCN(C(=O)C(N)=O)CC2)CC1 (stereo not shown) [Compound 83, 3-[(1-aminooxalyl-piperidin-4-yl)-(4-methyl-cyclohexanecarbonyl)-amino]-5-phenyl-thiophene-2-carboxylic acid] | < 5 µM | 
CC1CCC(C(=O)N(c2cc(-c3ccccc3)sc2C(=O)O)C2CCCNCC2)CC1 (stereo not shown) [Compound 6, 3-[azepan-4-yl-(4-methyl-cyclohexanecarbonyl)-amino]-5-phenyl-thiophene-2-carboxylic acid] |  | < 5 µM
C[C@H]1CC[C@H](C(=O)N(c2cc(-c3ccccc3)sc2C(=O)O)[C@H]2CC[C@](C)(O)CC2)CC1 [Compound 88, 3-[(4-hydroxy-4-methyl-cyclohexyl)-(4-methyl-cyclohexanecarbonyl)-amino]-5-phenyl-thiophene-2-carboxylic acid] |  | < 5 µM
CC1CCC(C(=O)N(CC2CCCNC2)c2cc(-c3ccccc3)sc2C(=O)O)CC1 (stereo not shown) [Compound 1, 3-{[(2-carboxy-5-phenyl-thiophen-3-yl)-(4-methyl-cyclohexanecarbonyl)-amino]-methyl}-piperidinium; trifluoro-acetate] |  | < 5 µM
C[C@H]1CC[C@H](C(=O)N(c2cc(-c3ccccc3)sc2C(=O)O)C2CC[S+]([O-])CC2)CC1 (relative stereo) [Compound 68, 3-[(trans-4-Methyl-cyclohexanecarbonyl)-(1-oxo-tetrahydro-thiopyran-4-yl)-amino]-5-phenyl-thiophene-2-carboxylic acid] |  | < 5 µM
CC(C)N(C(=O)[C@@H]1CC[C@@H](C)C[C@@H]1O)c1cc(-c2ccc(F)cc2)sc1C(=O)O [Compound 24] |  | < 5 µM
CC1CCC(C(=O)N(CC2CCCCN2)c2cc(-c3ccccc3)sc2C(=O)O)CC1 (stereo not shown) [Compound 2, 2-{[(2-carboxy-5-phenyl-thiophen-3-yl)-(4-methyl-cyclohexanecarbonyl)-amino]-methyl}-piperidinium; trifluoro-acetate] |  | < 5 µM
CC1CCC(C(=O)N(c2cc(-c3ccccc3)sc2C(=O)O)C(C)CN=[N+]=[N-])CC1 (stereo not shown) [Compound 43, 3-[(2-azido-1-methyl-ethyl)-(4-methyl-cyclohexanecarbonyl)-amino]-5-phenyl-thiophene-2-carboxylic acid] | < 5 µM | 
CC1=CCC(C(=O)N(c2cc(-c3ccc(F)cc3)sc2C(=O)O)C(C)C)CC1 (stereo not shown) [Compound 53, 5-(4-fluoro-phenyl)-3-[isopropyl-(4-methyl-cyclohex-3-enecarbonyl)-amino]-thiophene-2-carboxylic acid] |  | < 5 µM
C[C@H]1CC[C@H](C(=O)N(c2cc(-c3ccccc3)sc2C(=O)O)[C@H]2CC[C@@H](O)CC2)CC1 [Compound 47, 3-[(4-methyl-cyclohexanecarbonyl)-(4-hydroxy-cyclohexyl)-amino]-5-phenyl-thiophene-2-carboxylic acid] |  | < 5 µM
CC1CCC(C(=O)N(c2cc(-c3cccc(F)c3)sc2C(=O)O)C(C)C)C(O)C1 (stereo not shown) [Compound 44, 5-(3-fluoro-phenyl)-3-[(2-hydroxy-4-methyl-cyclohexanecarbonyl)-isopropyl-amino]-thiophene-2-carboxylic acid] |  | < 5 µM
CC1CCC(F)(C(=O)N(c2cc(-c3ccccc3)sc2C(=O)O)C(C)C)CC1 (stereo not drawn) [Compound 9, Trans-3-[(1-Fluoro-4-methyl-cyclohexanecarbonyl)-isopropyl-amino]-5-phenyl-thiophene-2-carboxylic acid] |  | < 5 µM
CC1CCC(C(=O)N(c2cc(-c3ccccc3)sc2C(=O)O)C2CCN(C=O)CC2)CC1 (stereo not shown) [Compound 63, 3-[(1-formyl-piperidin-4-yl)-(4-methyl-cyclohexanecarbonyl)-amino]-5-phenyl-thiophene-2-carboxylic acid] |  | < 5 µM
CN(C)N(C(=O)c1ccc(Cl)cc1Cl)c1cc(-c2ccccc2)sc1C(=O)O [Compound 72, 3-[n-(2,4-dichloro-benzoyl)-N′,N′-dimethyl-hydrazino]-5-phenyl-thiophene-2-carboxylic acid] |  | < 5 µM
CC1CCC(C(=O)N(c2cc(-c3ccccc3)sc2C(=O)O)C2CCN(C#N)CC2)CC1 (stereo not shown) [Compound 77, 3-[(1-cyano-piperidin-4-yl)-(4-methyl-cyclohexanecarbonyl)-amino]-5-phenyl-thiophene-2-carboxylic acid] |  | < 5 µM
C[C@H]1CC[C@H](C(=O)N(c2cc(-c3ccc(F)cc3)sc2C(=O)O)[C@H]2CC[C@@H](O)CC2)CC1 [Compound 73, 5-(4-fluoro-phenyl)-3-[(4-hydroxy-cyclohexyl)-(4-methyl-cyclohexanecarbonyl)-amino]-thiophene-2-carboxylic acid] |  | < 5 µM
CC1CCC(C(=O)N(Cc2ccncc2)c2cc(-c3ccccc3)sc2C(=O)O)CC1 (stereo not shown) [Compound 4, 3-[(4-methyl-cyclohexanecarbonyl)-pyridin-4-ylmethyl-amino]-5-phenyl-thiophene-2-carboxylic acid] |  | < 5 µM
CC(C)N(C(=O)[C@H]1CC[C@H](C)CO1)c1cc(-c2ccccc2)sc1C(=O)O (relative stereo) [Compound 27, 3-[Isopropyl-(trans-5-methyl-tetrahydro-pyran-2-carbonyl)-amino]-5-phenyl-thiophene-2-carboxylic acid] |  | < 5 µM
CC1CCC(C(=O)N(c2cc(-c3ccccc3)sc2C(=O)O)C2CCC(=O)CC2)CC1 (stereo not shown) [Compound 13, 3-[(4-methyl-cyclohexanecarbonyl)-(4-oxo-cyclohexyl)-amino]-5-phenyl-thiophene-2-carboxylic acid] |  | < 5 µM
C[C@H]1CC[C@H](C(=O)N(c2cc(-c3ccccc3)sc2C(=O)O)C2CCS(=O)(=O)CC2)CC1 [Compound 37, 3-[(1,1-Dioxo-tetrahydro-thiopyran-4-yl)-(trans-4-methyl-cyclohexanecarbonyl)-amino]-5-phenyl-thiophene-2-carboxylic acid] |  | < 5 µM
CCC(C)C(CN=[N+]=[N-])N(C(=O)c1ccc(Cl)cc1Cl)c1cc(-c2ccccc2)sc1C(=O)O (stereo not shown) [Compound 18, 3-[(1-azidomethyl-2-methyl-butyl)-(2,4-dichloro-benzoyl)-amino]-5-phenyl-thiophene-2-carboxylic acid] |  | < 5 µM
COc1ccc(-c2cc(N(C(=O)C3CCC(C)CC3O)C(C)C)c(C(=O)O)s2)cc1 (stereo not shown) [Compound 62, 3-[(2-hydroxy-4-methyl-cyclohexanecarbonyl)-isopropyl-amino]-5-(4-methoxy-phenyl)-thiophene-2-carboxylic acid] |  | < 5 µM
